Measured values taken from PMC10877564, “Activity of Gut-Derived Nisin-like Lantibiotics against Human Gut Pathogens and Commensals” (ACS Chemical Biology, 2024).
Positions of bridges follow the written chain, without caps; N, C: chain ends. Non-standard residues stand in square brackets, D forms with d. No end group written: not given here. Abu = CC[C@H](N)C(=O)O; Dhb = C/C=C(\N)C(=O)O; Dha = C=C(N)C(=O)O

Tests used:
Assay in all cases: MIC assay, anaerobic broth dilution
Conditions in all cases: BHIS, 37 °C, 48 h, 3-fold serial dilution
E. ramosum MSK.23.96 = format: cell-based, Erysipeloclostridium ramosum
Excerpt: (§1) Antibiotic treatment may result in collateral damage to commensal bacteria in the human microbiome, leading to dysbiosis and susceptibility to various diseases.[44] How lantibiotics impact Gram-positive commensals from the human gut has remained unclear. Therefore, we performed antimicrobial activity tests of these lantibiotics against selected Gram-positive human gut commensals, most of which belong to the Lachnospiraceae family, one of the most abundant bacterial families in the human gut.[27] In general, human gut commensals were more susceptible to the set of investigated lantibiotics compared to pathogens (Figure 3).
Elution Buffer (4 M guanidine hydrochloride, 20 mM Tris HCl, pH 7.5 at 25 °C, 100 mM NaCl, 1 M imidazole). Peptides eluted from the Ni resin were concentrated and desalted using 3 kDa Amicon filters (Millipore). For leader peptide removal, the peptide (1:20 trypsin to peptide) was incubated with the trypsin protease in 50 mM Tris-HCl, pH 8 overnight at 37 °C. Lastly, the core peptides were further purified with HPLC using an Agilent 1200 instrument (Agilent) as specified in general methods. About 1.5 mg recombinant peptide was obtained after HPLC purification per […]
(§2) All MIC assays were performed under anaerobic condition. […] Lantibiotics were dissolved in DPBS, and concentrations were determined by BCA assay (Pierce) according to the manufacturer’s protocol. […]

L. monocytogenes 10403s = format: cell-based, Listeria monocytogenes
Excerpt: (§3) Next, we set out to test the antimicrobial activities of these purified lantibiotics against a panel of Gram-positive bacteria that are representatives of some of the most prevalent human pathogens: VRE, Methicillin-resistant S. aureus USA300 (MRSA), Methicillin-resistant Staphylococcus epidermidis SK135 (MRSE), Listeria monocytogenes 10403S, and Clostridioides difficile VPI10463. We examined the growth of bacteria in a 96-well plate under a concentration gradient of lantibiotics under anaerobic conditions (Figure S2B). […]
(§4) For broth cultures, isolates were grown in pre-reduced BHI supplemented with 5 g/L yeast extract (Difco, BD) and 0.1% L-cysteine under anaerobic condition.
(§5) Minimal Inhibition Concentration (MIC) assay
(§6) All MIC assays were performed under anaerobic condition. Stationary bacterial culture in BHIS (BHI supplemented with 5 g/L yeast extract and 0.1% L-cysteine) were inoculated 1:100 to wells containing 200 µL BHIS in U-bottom 96-well plates. Lantibiotics were dissolved in DPBS, and concentrations were determined by BCA assay (Pierce) according to the manufacturer’s protocol.
(§7) Lantibiotic stock solutions were added to wells to reach desired final concentration, with 3-fold serial dilution across rows to create concentration gradients. Bacteria-inoculated wells without lantibiotics served as control. […]

[1] = system: E. faecium ATCC700221 (VRE); format: cell-based, Enterococcus faecium
Excerpt: as §3, §4, §5, §6, §7

B. obeum MSK.18.40 = format: cell-based, Blautia obeum
Excerpt: as §1, with “3). […]” for “3).”
Isolation of human gut commensal bacteria
Isolation and growth of commensal bacteria was done as previously reported.5 Briefly, fresh donor fecal samples were transferred into an anaerobic chamber (Coy Labs) within 1 h of collection. The anaerobic chamber was maintained using a gas mix consisting of 5% hydrogen, 5% carbon dioxide and 90% nitrogen, and hydrogen was maintained at ~3.0% using an anaerobic gas infuser. […]
as §2

nisin A (I[Dhb]AI[Dha]LC[Abu]PGCK[Abu]GALMGCNMK[Abu]A[Abu]CHCSIHV[Dha]K; thioether 8-11, 13-19, 23-26, 25-28, 3-7; UniProt P13068 24-57, looked up) [prototypical class I lantibiotic produced by L. lactis, food preservative; commercial nisin A]
nisin A MIC (E. ramosum MSK.23.96): 0.889 µM | nisin A MIC (L. monocytogenes 10403s): 2.67 µM | nisin A MIC [1]: 1.48 µM | nisin A MIC (B. obeum MSK.18.40): 0.0110 µM
